Results on ten compounds are retold here after ChEMBL document CHEMBL1149452 (J Med Chem, 2006).

The first assay deals with T1, 17-beta-hydroxysteroid dehydrogenase type 1 (Homo sapiens, UniProt P14061).
T1 sequence (P14061 whole entry): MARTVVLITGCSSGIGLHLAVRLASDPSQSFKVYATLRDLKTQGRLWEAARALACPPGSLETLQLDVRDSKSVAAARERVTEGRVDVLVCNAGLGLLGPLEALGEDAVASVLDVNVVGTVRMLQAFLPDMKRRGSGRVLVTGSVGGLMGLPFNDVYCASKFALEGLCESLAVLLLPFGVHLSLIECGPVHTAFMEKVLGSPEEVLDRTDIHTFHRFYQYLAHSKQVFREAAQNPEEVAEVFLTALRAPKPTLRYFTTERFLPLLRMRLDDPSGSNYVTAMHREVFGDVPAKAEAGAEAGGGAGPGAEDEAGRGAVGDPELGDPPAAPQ
Kind of assay: (§1) Inhibition of 17-beta HSD1 in T47D cells. Type of assay: functional, cell-based.
Compound `C[C@]12CC[C@@H]3c4ccc(O)cc4/C(=N\O)C[C@H]3[C@@H]1CC/C2=N\O` returned an IC50 of 1900 nM.

Compound `C[C@]12CC[C@@H]3c4ccc(O)cc4CC[C@H]3[C@@H]1CC(CC(=O)NCC1CCCO1)C2=O` (stereo not given in full) came in with an IC50 of 380 nM.

For the compound `C[C@]12CC[C@@H]3c4ccc(O)cc4CC[C@H]3[C@@H]1C/C(=C\c1ccncc1)[C@@H]2O`, the IC50 turned out to be 4100 nM.

The compound `CNC(=O)CC1C[C@H]2[C@@H]3CCc4cc(O)ccc4[C@H]3CC[C@]2(C)C1=O` (stereo not given in full) returned an IC50 of 1500 nM.

Turning to `C[C@]12CC[C@@H]3c4ccc(O)cc4C(=O)C[C@H]3[C@@H]1CCC2=O`, 340 nM corresponded to half-maximal inhibition (IC50).

For the compound `CC(NC(=O)C1C[C@H]2[C@@H]3CCc4cc(O)ccc4[C@H]3CC[C@]2(C)[C@H]1O)c1ccccc1` (stereo not given in full), the IC50 came out at 810 nM.

Take `CCOC[C@H]1C[C@H]2[C@@H]3CCc4cc(O)ccc4[C@H]3CC[C@]2(C)C1=O`: half-maximal inhibition (IC50) required 320 nM. This IC50 lies about 2.5-fold lower than the previous one.

As for `C[C@]12CC[C@@H]3c4ccc(O)cc4CC[C@H]3[C@@H]1CC(C(=O)NCc1cccnc1)[C@@H]2O` (stereo not given in full), inhibition was half-maximal at 510 nM (IC50).

Compound `CCOC(=O)CC1C[C@H]2[C@@H]3CCc4cc(O)ccc4[C@H]3CC[C@]2(C)C1=O` (stereo not given in full) showed an IC50 of 300 nM.

The next assay deals with T2, 17-beta-hydroxysteroid dehydrogenase type 1 (Homo sapiens) (UniProt P14061).
T2 sequence (whole entry): T1 sequence (P14061 whole entry)
The assay is described as §1. The format is functional, cell-based.
Consider `C[C@]12CCC3c4ccc(O)cc4C(=O)CC3C1CC(C=O)=C2O` (stereo not given in full), for which half-maximal inhibition (IC50) required 0.7 µM.
